# In patent publication US8685928B2, “Antagonists of MUC1” (Dana-Farber Cancer Institute, Inc., priority 2010, dated 2014):
# “Also recorded” adds a separate entry of the source. Positions of bridges follow the written chain, without caps; N, C: chain ends. Non-standard residues stand in square brackets, D forms with d. Residues, ends and D or L forms follow the SMILES beside them.
# Assays:
# adrenergic α1B receptor = adrenergic α1B receptor (Homo sapiens, UniProt P35368); experiment: biochemical
# Sequence of adrenergic α1B receptor (P35368 whole entry): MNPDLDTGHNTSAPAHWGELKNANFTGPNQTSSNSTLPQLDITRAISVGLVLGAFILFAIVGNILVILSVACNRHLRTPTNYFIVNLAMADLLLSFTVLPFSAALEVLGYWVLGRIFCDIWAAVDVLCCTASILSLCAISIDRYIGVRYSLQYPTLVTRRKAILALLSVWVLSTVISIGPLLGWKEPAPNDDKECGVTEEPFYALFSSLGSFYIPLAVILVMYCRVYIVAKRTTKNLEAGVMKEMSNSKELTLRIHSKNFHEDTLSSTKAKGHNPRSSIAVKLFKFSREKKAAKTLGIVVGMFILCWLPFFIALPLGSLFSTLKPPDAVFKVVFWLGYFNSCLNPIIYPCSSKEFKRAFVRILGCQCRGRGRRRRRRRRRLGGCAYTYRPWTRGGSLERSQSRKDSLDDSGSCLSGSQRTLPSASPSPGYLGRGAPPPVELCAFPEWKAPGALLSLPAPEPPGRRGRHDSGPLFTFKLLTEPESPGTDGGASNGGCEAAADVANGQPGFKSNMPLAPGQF
# muscarinic M2 receptor = muscarinic M2 receptor (Homo sapiens, UniProt P08172); experiment: biochemical
# Sequence of muscarinic M2 receptor (P08172 whole entry): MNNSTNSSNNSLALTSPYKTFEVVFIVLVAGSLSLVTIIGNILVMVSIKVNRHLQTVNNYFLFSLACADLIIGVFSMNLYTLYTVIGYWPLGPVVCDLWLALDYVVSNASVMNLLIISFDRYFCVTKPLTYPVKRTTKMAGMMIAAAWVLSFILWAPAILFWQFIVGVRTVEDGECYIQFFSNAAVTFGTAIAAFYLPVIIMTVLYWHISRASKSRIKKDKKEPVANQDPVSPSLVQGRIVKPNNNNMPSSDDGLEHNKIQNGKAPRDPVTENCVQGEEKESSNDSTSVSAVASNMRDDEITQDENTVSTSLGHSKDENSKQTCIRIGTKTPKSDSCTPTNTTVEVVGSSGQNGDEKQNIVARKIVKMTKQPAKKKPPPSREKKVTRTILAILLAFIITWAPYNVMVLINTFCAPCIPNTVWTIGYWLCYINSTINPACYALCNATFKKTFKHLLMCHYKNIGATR
# [1] = Pivotal repeat-dose rat toxicity study; assay type: in vivo; settings: for Safety margin: human starting dose lower than NOAEL: 3 mg/m^2 human starting dose
# Protocol: (§1) The proposed clinical trial will be a multicenter, open-label, dose-escalation, safety, pharmacodynamic and pharmacokinetic study in patients with advanced solid tumors administered GO-203-2c IV over 60 min once per day for 21 consecutive days; this dosing regimen will be repeated every 28 days. Since the majority of the treatment-related findings in rats and dogs were localized at the infusion site or were secondary to the infusion site reactions, the no-observed-adverse-effect-level (NOAEL) for systemic toxicity in the pivotal repeat-dose rat toxicity study was determined to be 5 mg/kg/day. The highest non-severely toxic dose (HNSTD), which was also considered the NOAEL, was established as 1 mg/kg/day in the dog pivotal repeat-dose toxicity study. For vascular injury at the injection site, the NOAEL in rats is […]. This concentration rate is 25-fold greater than the estimated concentration rate for humans (0.83 μg/mL/min) at the recommended starting dose of 3 mg/m2/day (assumes a body mass of 1.65 m2).
# [2] = tested on: ZR-75-1 human breast carcinoma xenograft; experiment: ZR-75-1 human breast carcinoma xenograft model, daily dosing for 21 days; assay type: in vivo, mouse; settings: nu/nu mice
# Protocol: Efficacy of GO-203-2c was evaluated in a ZR-75-1 human breast carcinoma xenograft model. Female nu/nu mice (20-30 g; Charles River Laboratories, Wilmington, Mass.) were injected in the thigh with 5 million ZR-75-1 cells in Matrigel suspension. Mice also received subcutaneous 17-β-estradiol pellets. When tumors reached 100-200 mm^3 in size (approximately 12-15 days after implantation), mice were split into 4 groups of 5 mice and administered the following treatments daily for 21 days: phosphate-buffered saline (PBS) IP, 1 mg/kg GO-203-2c IV, 4 mg/kg GO-203-2c IV or 4 mg/kg control peptide CP-3 IV. Each animal was sacrificed when the tumor reached the predetermined endpoint size (˜2500 mm^3) or when the animals remained tumor-free for 180 days after implantation of the tumor cells.
# [3] = tested on: ZR-75-1 human breast carcinoma xenograft; experiment: ZR-75-1 xenograft model, 5 days on/2 days off IV dosing schedule; assay type: in vivo, mouse; settings: for Mice completely cured / Tumor response: 7.5 mg/kg IV
# Protocol: In a second study using this ZR-75-1 cell xenograft model, a 5 days on/2 days off IV dosing schedule was used, and groups of 8 mice received either one, two or three cycles utilizing this schedule. […] Tumor growth was cytostatic for 4-5 days after stopping the drug treatment, but tumors subsequently started re-growing similarly to control. […] Tumors in the remaining 5 of 8 mice in this group started re-growing at 8+ days after cessation of treatment. These animals were administered an additional 2 cycles of treatment, starting on Day 29.
# dopamine D1 receptor = dopamine D1 receptor (Homo sapiens, UniProt P21728); experiment: biochemical
# Sequence of dopamine D1 receptor (P21728 whole entry, species assumed): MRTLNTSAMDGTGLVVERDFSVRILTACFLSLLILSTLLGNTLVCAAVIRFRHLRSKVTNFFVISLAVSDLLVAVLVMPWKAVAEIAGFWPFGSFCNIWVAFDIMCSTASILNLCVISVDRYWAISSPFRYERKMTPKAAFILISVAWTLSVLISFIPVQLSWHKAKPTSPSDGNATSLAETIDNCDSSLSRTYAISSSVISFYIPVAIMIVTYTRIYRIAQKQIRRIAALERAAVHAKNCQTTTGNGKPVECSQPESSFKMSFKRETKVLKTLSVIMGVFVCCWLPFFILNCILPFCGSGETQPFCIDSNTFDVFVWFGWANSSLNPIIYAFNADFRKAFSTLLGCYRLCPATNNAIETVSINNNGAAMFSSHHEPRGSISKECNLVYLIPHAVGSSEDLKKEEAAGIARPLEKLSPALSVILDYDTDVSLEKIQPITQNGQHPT
# ZR-75-1 breast carcinoma = settings: human
# Protocol: (§2) GO-203-2 and GO-203-2c were evaluated for ability to inhibit proliferation of murine and human carcinoma cell lines in vitro. Test compound (5 μM final concentration) was added to tumor cell cultures daily for 5 to 6 days, and cell viability was determined by trypan blue dye exclusion.
# KW-814 T6 NSCLC = settings: mouse
# Protocol: as §2
# MCF-7 breast carcinoma = settings: human
# Protocol: as §2
# A549 NSCLC = settings: human
# Protocol: as §2
# H1975 NSCLC = settings: human
# Protocol: as §2
# H1650 NSCLC = settings: human
# Protocol: as §2
# [4] = tested on: MiaPaCa-2 pancreatic carcinoma; settings: human
# Protocol: as §2
# KW-807 LN NSCLC = settings: mouse
# Protocol: as §2
# adrenergic α1A receptor = adrenergic α1A receptor (Homo sapiens, UniProt P35348); experiment: biochemical
# Sequence of adrenergic α1A receptor (P35348 whole entry): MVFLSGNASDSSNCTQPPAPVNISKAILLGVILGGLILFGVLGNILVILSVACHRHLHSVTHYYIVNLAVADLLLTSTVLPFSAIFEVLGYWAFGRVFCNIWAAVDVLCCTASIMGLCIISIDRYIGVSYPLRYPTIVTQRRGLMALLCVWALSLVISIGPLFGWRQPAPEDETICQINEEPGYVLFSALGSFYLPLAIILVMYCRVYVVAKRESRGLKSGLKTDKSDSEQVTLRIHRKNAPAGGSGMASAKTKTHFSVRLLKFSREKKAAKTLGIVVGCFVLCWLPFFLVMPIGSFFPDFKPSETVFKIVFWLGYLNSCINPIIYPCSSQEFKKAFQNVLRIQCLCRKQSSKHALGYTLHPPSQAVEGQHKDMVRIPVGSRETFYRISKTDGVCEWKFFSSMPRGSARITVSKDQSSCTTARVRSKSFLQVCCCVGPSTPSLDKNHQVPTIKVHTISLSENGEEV
# [5] = tested on: A549 non-small cell lung carcinoma xenograft; experiment: A549 non-small cell lung carcinoma xenograft model; assay type: in vivo, mouse; settings: for Tumor response: 7.5 mg/kg
# Protocol: Male BALB/c nu/nu mice (6-7 weeks old; Charles River Laboratories, Wilmington, Mass.) were injected with 5 million A549 or PC3 cells in the right thigh. When tumors reached a predetermined size (approximately 80-100 mm^3; 10-16 days after tumor cell implantation), treatment was initiated as follows: Group 1, saline control (daily×21 days); Group 2, GO-203-2c (7.5 mg/kg, 5 days on/2 days off×3 cycles); Group 3, GO-203-2c (7.5 mg/kg, daily×21 days). In the A549 study, Group 3 animals that still had palpable/measurable tumors at the end of the 21-day treatment period were administered an additional 9 days of GO-203-2c treatment (Group 3′), with a one week interim period between treatments.
# [6] = Dog pivotal repeat-dose toxicity study; assay type: in vivo; settings: for Safety margin: human starting dose lower than NOAEL: 3 mg/m^2 human starting dose
# Protocol: as §1
# MUC1-CD = MUC1-CD oligomerization in transfected HEK 293T cells, species comparison; assay type: cell-based; settings: MUC1-CD from rat, dog and human compared
# Protocol: Studies were also conducted to confirm pharmacological relevance of the rodent and nonrodent species chosen for toxicology studies, namely the rat and dog, respectively. MUC1-CD amino acid sequence was determined to be greater than 80% identical between rat, dog and human proteins, and similar expression of MUC1 was found in stomach, intestinal and lung epithelium from the different species using immunohistochemical staining. […] The results of these studies indicate that potential MUC1-CD targets in the rat, dog and human are similar with respect to sequence, tissue expression and responsiveness to inhibition of oligomerization by GO-203-2c, and confirm pharmacological relevance of the species chosen for nonclinical safety assessment of GO-203-2c.
smiles,measurement,setting,value
"CC(=O)N[C@H](CCCNC(=N)N)C(=O)N[C@H](CCCNC(=N)N)C(=O)N[C@H](CCCNC(=N)N)C(=O)N[C@H](CCCNC(=N)N)C(=O)N[C@H](CCCNC(=N)N)C(=O)N[C@H](CCCNC(=N)N)C(=O)N[C@H](CCCNC(=N)N)C(=O)N[C@H](CCCNC(=N)N)C(=O)N[C@H](CCCNC(=N)N)C(=O)N[C@@H]1CSSC[C@H](C(=O)N[C@H](CCCNC(=N)N)C(=O)N[C@H](CCCNC(=N)N)C(=O)N[C@H](CCCCN)C(=O)N[C@H](CC(N)=O)C(N)=O)NC(=O)[C@@H](CCC(N)=O)NC1=O [GO-203-2c, Ac-(D)Arg-(D)Arg-(D)Arg-(D)Arg-(D)Arg-(D)Arg-(D)Arg-(D)Arg-(D)Arg-(D)Cys-(D)Gln-(D)Cys-(D)Arg-(D)Arg-(D)Lys-(D)Asn-NH2 disulfide] (Ac-[dR][dR][dR][dR][dR][dR][dR][dR][dR][dC][dQ][dC][dR][dR][dK][dN]-NH2; disulfide 10-12)",IC50,adrenergic α1B receptor,3 to 8 µM
same,IC50,muscarinic M2 receptor,3 to 8 µM
same,Rat injection-site NOAEL concentration rate relative to estimated human concentration rate (0.83 μg/mL/min),[1]; human starting dose of 3 mg/m2/day,25 fold
same,NOAEL,"[1]; in vivo, rat, repeat-dose IV, read-out: NOAEL for systemic toxicity",5 mg/kg/day
same,NOAEL (systemic),"[1]; rat, body surface area basis",30 mg/m2/day
same,Safety margin: human starting dose lower than NOAEL,"[1]; rat, mg/kg basis",62 fold
same,Safety margin: human starting dose lower than NOAEL,"[1]; rat, mg/m^2 basis",10 fold
same,NOAEL for vascular injury at the injection site (concentration rate),[1]; rats,20.8 µg/mL/min
same,Tumor response,[2]; 1 mg/kg IV daily for 21 days,Partial tumor regression
same,Tumor response,[2]; 4 mg/kg IV daily for 21 days,complete regression of tumor growth
same,Mice completely cured,[3]; 2 dosing cycles,Two of 8
same,Tumor response,[3]; 2 dosing cycles (5 days on/2 days off),Tumor regression
same,Mice completely cured,[3]; 3 dosing cycles,Three of 8
same,Tumor response,[3]; 3 dosing cycles (5 days on/2 days off),"tumor growth arrest during the treatment period, but the tumors resumed growth; also recorded: substantial regression of tumors"
same,Tumor response,[3]; one dosing cycle (5 days on/2 days off),partial tumor regression
same,Tumor response after re-dosing,[3]; additional 2 cycles from Day 29 in 5 mice with re-growing tumors,somewhat stabilized with very slow growth
same,IC50,dopamine D1 receptor,10.5 µM
same,% Inhibition of cell viability,ZR-75-1 breast carcinoma,43.6%
same,% Inhibition of cell viability,KW-814 T6 NSCLC,70.1%
same,% Inhibition of cell viability,MCF-7 breast carcinoma,87.7%
same,% Inhibition of cell viability,A549 NSCLC,73.1%
same,% Inhibition of cell viability,H1975 NSCLC,46.2%
same,% Inhibition of cell viability,H1650 NSCLC,89.0%
same,% Inhibition of cell viability,[4],81.5%
same,% Inhibition of cell viability,KW-807 LN NSCLC,40.3%
same,IC50,adrenergic α1A receptor,3 to 8 µM
same,Tumor response,[5]; 5 days on/2 days off x 3 cycles,"tumor growth arrest during the treatment period, but the tumors resumed growth; also recorded: started growing steadily after day 9"
same,Tumor response,[5]; daily x 21 days,slowed down tumor growth substantially
same,Tumor response after re-dosing,[5]; additional 9 days of treatment from day 29,somewhat stabilized with a very slow growth
same,Average tumor size on day 29,"[5]; daily x 21 days group after 7 days of rest, at start of re-dosing",~900 mm^3
same,HNSTD or NOAEL,[6]; body surface area basis,20 mg/m2/day
same,NOAEL,"[6]; in vivo, repeat-dose IV, read-out: Highest non-severely toxic dose (HNSTD), also considered the NOAEL",1 mg/kg/day
same,Safety margin: human starting dose lower than NOAEL,[6]; mg/kg basis,12 fold
same,Safety margin: human starting dose lower than NOAEL,[6]; mg/m^2 basis,6.7 fold
same,Inhibition of MUC1-CD oligomerization,MUC1-CD,in an equivalent manner
